{
  "source": "patent US12606541B2",
  "about": "“PPARg modulators and methods of use” (Eisai R&D Management Co., Ltd., priority 2020, dated 2026)",
  "data": [
    {"molecular_target": "T1, His6-TEV-PPARγ-(234-505) (Homo sapiens, UniProt P37231)", "T1 construct": "The His6-TEV-PPARγ-(234-505) protein for assay was expressed and purified; TEV cleavage site (N); made in house", "T1 sequence (P37231 234-505)": "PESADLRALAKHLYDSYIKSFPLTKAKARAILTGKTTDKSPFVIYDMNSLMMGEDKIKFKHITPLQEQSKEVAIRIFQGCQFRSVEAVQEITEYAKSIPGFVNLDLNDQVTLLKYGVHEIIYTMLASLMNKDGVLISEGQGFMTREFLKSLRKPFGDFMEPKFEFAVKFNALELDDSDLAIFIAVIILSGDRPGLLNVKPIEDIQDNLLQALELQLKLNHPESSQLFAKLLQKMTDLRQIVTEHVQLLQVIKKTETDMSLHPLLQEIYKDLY", "assay": "TR-FRET Assay to Measure Co-R Peptide Recruitment to PPARγ", "type": "biochemical", "conditions": "Co-R peptide recruitment to PPARγ; read-out: TR-FRET AC50", "in_short": "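His-tagged PPARγ (or controls) was preincubated with compound for 20 minutes at room temperature, then 5 nM anti-His terbium antibody and 200 nM FITC-labeled SMRT-ID2 corepressor peptide (final) were added for a further hour. TR-FRET signal was normalized to percent response using 500 nM T0070907 and DMSO controls.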", "units": {"AC50": "µM"}, "values": [
      {"smiles": "COc1cc(-c2cc(C(=O)N3CCC(C(=O)NCc4cccnn4)CC3)n[nH]2)c(Cl)cn1", "note": "[1-[5-(5-chloro-2-methoxypyridin-4-yl)-1H-pyrazole-3-carbonyl]-N-[(pyridazin-3-yl)methyl]piperidine-4-carboxamide]", "AC50": "> 1"},
      {"smiles": "COc1cc(-c2cc(C(=O)N3CCC(C(=O)NCc4ncccn4)CC3)n[nH]2)c(Cl)cn1", "note": "[1-[5-(5-chloro-2-methoxypyridin-4-yl)-1H-pyrazole-3-carbonyl]-N-[(pyrimidin-2-yl)methyl]piperidine-4-carboxamide]", "AC50": "> 1"},
      {"smiles": "COc1cc(-c2cc(C(=O)N3CCC(C(=O)NCc4ccncn4)CC3)n[nH]2)c(Cl)cn1", "note": "[1-[5-(5-chloro-2-methoxypyridin-4-yl)-1H-pyrazole-3-carbonyl]-N-[(pyrimidin-4-yl)methyl]piperidine-4-carboxamide]", "AC50": "> 1"},
      {"smiles": "COc1cc(-c2cc(C(=O)N3CCC(C(=O)NC4CC4)CC3)n[nH]2)c(Cl)cn1", "note": "[1-[5-(5-chloro-2-methoxypyridin-4-yl)-1H-pyrazole-3-carbonyl]-N-cyclopropylpiperidine-4-carboxamide]", "AC50": "> 1"},
      {"smiles": "COc1cc(-c2cc(C(=O)N3CCC(C(=O)N(C)C4CCC(C)CC4)CC3)n[nH]2)c(Cl)cn1", "note": "(centres unmarked) [1-[5-(5-chloro-2-methoxypyridin-4-yl)-1H-pyrazole-3-carbonyl]-N-methyl-N-(4-methylcyclohexyl)piperidine-4-carboxamide]", "AC50": "> 1"},
      {"smiles": "COc1cc(-c2cc(C(=O)N3CCC(C(=O)NC45CCC(C)(C4)OC5)CC3)n[nH]2)c(Cl)cn1", "note": "(centres unmarked) [1-[5-(5-chloro-2-methoxypyridin-4-yl)-1H-pyrazole-3-carbonyl]-N-{1-methyl-2-oxabicyclo[2.2.1]heptan-4-yl}piperidine-4-carboxamide]", "AC50": "> 1"},
      {"smiles": "COc1cc(-c2cc(C(=O)N3CCC(C(=O)NC45COC(C4)C5)CC3)n[nH]2)c(Cl)cn1", "note": "[1-[5-(5-chloro-2-methoxypyridin-4-yl)-1H-pyrazole-3-carbonyl]-N-{2-oxabicyclo[2.1.1]hexan-4-yl}piperidine-4-carboxamide]", "AC50": "> 1"},
      {"smiles": "COc1cc(-c2cc(C(=O)N3CCC(C(=O)NC45CC(F)(C4)C5)CC3)n[nH]2)c(Cl)cn1", "note": "[1-[5-(5-chloro-2-methoxypyridin-4-yl)-1H-pyrazole-3-carbonyl]-N-{3-fluorobicyclo[1.1.1]pentan-1-yl}piperidine-4-carboxamide]", "AC50": "> 1"},
      {"smiles": "COc1cc(-c2cc(C(=O)N3CCC(C(=O)NC45CCC(O)(CC4)CC5)CC3)n[nH]2)c(Cl)cn1", "note": "[1-[5-(5-chloro-2-methoxypyridin-4-yl)-1H-pyrazole-3-carbonyl]-N-{4-hydroxybicyclo[2.2.2]octan-1-yl}piperidine-4-carboxamide]", "AC50": "> 1"},
      {"smiles": "COc1cc(-c2cc(C(=O)N3CCC(C(=O)NCC4(N(C)C)CCCC4)CC3)n[nH]2)c(Cl)cn1", "note": "[1-[5-(5-chloro-2-methoxypyridin-4-yl)-1H-pyrazole-3-carbonyl]-N-{[1-(dimethylamino)cyclopentyl]methyl}piperidine-4-carboxamide]", "AC50": "> 1"},
      {"smiles": "COc1cc(-c2cc(C(=O)N3CCC(C(=O)NCc4ccccc4C(F)(F)F)CC3)n[nH]2)c(Cl)cn1", "note": "[1-[5-(5-chloro-2-methoxypyridin-4-yl)-1H-pyrazole-3-carbonyl]-N-{[2-(trifluoromethyl)phenyl]methyl}piperidine-4-carboxamide]", "AC50": "> 1"},
      {"smiles": "COc1cc(-c2cc(C(=O)N3CCC(C(=O)NCc4cc(F)cc(C(F)(F)F)c4)CC3)n[nH]2)c(Cl)cn1", "note": "[1-[5-(5-chloro-2-methoxypyridin-4-yl)-1H-pyrazole-3-carbonyl]-N-{[3-fluoro-5-(trifluoromethyl)phenyl]methyl}piperidine-4-carboxamide]", "AC50": "> 1"},
      {"smiles": "COc1cc(-c2cc(C(=O)N3CCC(C(=O)NCc4ncc(C(F)F)cn4)CC3)n[nH]2)c(Cl)cn1", "note": "[1-[5-(5-chloro-2-methoxypyridin-4-yl)-1H-pyrazole-3-carbonyl]-N-{[5-(difluoromethyl)pyrimidin-2-yl]methyl}piperidine-4-carboxamide]", "AC50": "> 1"},
      {"smiles": "COc1cc(-c2cc(C(=O)N3CCC(C(=O)NCc4nnc5ccc(C(F)(F)F)cn45)CC3)n[nH]2)c(Cl)cn1", "note": "[1-[5-(5-chloro-2-methoxypyridin-4-yl)-1H-pyrazole-3-carbonyl]-N-{[6-(trifluoromethyl)-[1,2,4]triazolo[4,3-a]pyridin-3-yl]methyl}piperidine-4-carboxamide]", "AC50": "> 1"},
      {"smiles": "COc1cc(-c2cc(C(=O)N3CCC(C(=O)Nc4cnc5ccccn45)CC3)n[nH]2)c(Cl)cn1", "note": "[1-[5-(5-chloro-2-methoxypyridin-4-yl)-1H-pyrazole-3-carbonyl]-N-{imidazo[1,2-a]pyridin-3-yl}piperidine-4-carboxamide]", "AC50": "> 1"},
      {"smiles": "COc1cc(-c2cc(C(=O)N3CCC(C(=O)O)CC3)n[nH]2)c(Cl)cn1", "note": "[1-[5-(5-chloro-2-methoxypyridin-4-yl)-1H-pyrazole-3-carbonyl]piperidine-4-carboxylic acid]", "AC50": "> 1"},
      {"smiles": "COc1cc(-c2cc(C(=O)N3CCC(C(=O)NC4(c5ccccc5)CC4)CC3)n[nH]2)c(F)cn1", "note": "[1-[5-(5-fluoro-2-methoxypyridin-4-yl)-1H-pyrazole-3-carbonyl]-N-(1-phenylcyclopropyl)piperidine-4-carboxamide]", "AC50": "> 1"},
      {"smiles": "COc1cc(-c2cc(C(=O)N3CCC(C(=O)NC4COC(C)OC4)CC3)n[nH]2)c(F)cn1", "note": "(centres unmarked) [1-[5-(5-fluoro-2-methoxypyridin-4-yl)-1H-pyrazole-3-carbonyl]-N-(2-methyl-1,3-dioxan-5-yl)piperidine-4-carboxamide]", "AC50": "> 1"},
      {"smiles": "COc1cc(-c2cc(C(=O)N3CCC(C(=O)NC4CCCCO4)CC3)n[nH]2)c(F)cn1", "note": "(centres unmarked) [1-[5-(5-fluoro-2-methoxypyridin-4-yl)-1H-pyrazole-3-carbonyl]-N-(oxan-2-yl)piperidine-4-carboxamide]", "AC50": "> 1"},
      {"smiles": "O=C(NCCN1CCCC1)C1CCN(C(=O)c2cc(-c3ccncc3)[nH]n2)CC1", "note": "[1-[5-(pyridin-4-yl)-1H-pyrazole-3-carbonyl]-N-[2-(pyrrolidin-1-yl)ethyl]piperidine-4-carboxamide]", "AC50": "> 1"},
      {"smiles": "O=C(Nc1cccc(C(F)(F)F)c1)C1CCN(C(=O)c2cc(-c3ccncc3)[nH]n2)CC1", "note": "[1-[5-(pyridin-4-yl)-1H-pyrazole-3-carbonyl]-N-[3-(trifluoromethyl)phenyl]piperidine-4-carboxamide]", "AC50": "> 1"},
      {"smiles": "O=C(NCc1ccncc1)C1CCN(C(=O)c2cc(-c3ccncc3)[nH]n2)CC1", "note": "[1-[5-(pyridin-4-yl)-1H-pyrazole-3-carbonyl]-N-[(pyridin-4-yl)methyl]piperidine-4-carboxamide]", "AC50": "> 1"},
      {"smiles": "O=C(c1cc(-c2ccncc2)[nH]n1)N1CCC(C(=O)N2CCN(c3ccccc3)CC2)CC1", "note": "[1-phenyl-4-{1-[5-(pyridin-4-yl)-1H-pyrazole-3-carbonyl]piperidine-4-carbonyl}piperazine]", "AC50": "> 1"},
      {"smiles": "O=C(c1cc(-c2ccncc2)[nH]n1)N1CCC(C(=O)N2CCN(CC(F)(F)F)CC2)CC1", "note": "[1-{1-[5-(pyridin-4-yl)-1H-pyrazole-3-carbonyl]piperidine-4-carbonyl}-4-(2,2,2-trifluoroethyl)piperazine]", "AC50": "> 1"},
      {"smiles": "O=C(c1cc(-c2ccncc2)[nH]n1)N1CCC(C(=O)N2CCC23COC3)CC1", "note": "[1-{1-[5-(pyridin-4-yl)-1H-pyrazole-3-carbonyl]piperidine-4-carbonyl}-6-oxa-1-azaspiro[3.3]heptane]", "AC50": "> 1"},
      {"smiles": "CC1CCC(NC(=O)C2CCN(C(=O)c3cc(-c4ccnc(OC(F)F)c4)[nH]n3)CC2)CC1", "note": "(centres unmarked) [1-{5-[2-(difluoromethoxy)pyridin-4-yl]-1H-pyrazole-3-carbonyl}-N-(4-methylcyclohexyl)piperidine-4-carboxamide]", "AC50": "> 1"},
      {"smiles": "CC1CCC(NC(=O)C2CCN(C(=O)c3cc(-c4ccnc(N(C)C)c4)[nH]n3)CC2)CC1", "note": "(centres unmarked) [1-{5-[2-(dimethylamino)pyridin-4-yl]-1H-pyrazole-3-carbonyl}-N-(4-methylcyclohexyl)piperidine-4-carboxamide]", "AC50": "> 1"},
      {"smiles": "CNc1cc(-c2cc(C(=O)N3CCC(C(=O)NC4CCC(C)CC4)CC3)n[nH]2)ccn1", "note": "(centres unmarked) [1-{5-[2-(methylamino)pyridin-4-yl]-1H-pyrazole-3-carbonyl}-N-(4-methylcyclohexyl)piperidine-4-carboxamide]", "AC50": "> 1"},
      {"smiles": "O=C(O)COc1cc(NC(=O)C2CCN(C(=O)c3cc(-c4ccncc4)[nH]n3)CC2)ccc1Cl", "note": "[2-(2-chloro-5-{1-[5-(pyridin-4-yl)-1H-pyrazole-3-carbonyl]piperidine-4-amido}phenoxy)acetic acid]", "AC50": "> 1"},
      {"smiles": "COc1cc(-c2cc(C(=O)N3CCC4(C(=O)NCc5cccc(Cl)c5)CC34)n[nH]2)c(Cl)cn1", "note": "(centres unmarked) [2-[5-(5-chloro-2-methoxypyridin-4-yl)-1H-pyrazole-3-carbonyl]-N-[(3-chlorophenyl)methyl]-2-azabicyclo[3.1.0]hexane-5-carboxamide]", "AC50": "> 1"},
      {"smiles": "COc1cc(-c2cc(C(=O)N3CCC(C(=O)NCc4cccc(Cl)c4)C4C3C4(F)F)n[nH]2)c(Cl)cn1", "note": "(centres unmarked) [2-[5-(5-chloro-2-methoxypyridin-4-yl)-1H-pyrazole-3-carbonyl]-N-[(3-chlorophenyl)methyl]-7,7-difluoro-2-azabicyclo[4.1.0]heptane-5-carboxamide]", "AC50": "> 1"},
      {"smiles": "O=C(c1cc(-c2ccncc2)[nH]n1)N1CCC(C(=O)N2CCc3ccccc3C2)CC1", "note": "[2-{1-[5-(pyridin-4-yl)-1H-pyrazole-3-carbonyl]piperidine-4-carbonyl}-1,2,3,4-tetrahydroisoquinoline]", "AC50": "> 1"}
    ]}
  ]
}
